Consider 9 molecules from patent publication US10730872B2, “Pesticidally active heterocyclic derivatives with sulphur containing sustitutents” (SYNGENTA PARTICIPATIONS AG, priority 2015, dated 2020).

A value given as a limit tells only on which side of the number the result lay.

The test system of data set [1] is Spodoptera littoralis. The data set can be described thus: Spodoptera littoralis (Egyptian Cotton Leaf Worm), sprayed cotton leaf discs. The class given is in vivo. To be noted: foliar, 72 h, application rate of 200 ppm, L1 larvae, 3 days after infestation. Summed up:
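Cotton leaf discs on agar sprayed with aqueous dilutions of 10,000 ppm DMSO stocks, dried, then infested with five L1 larvae. Mortality, anti-feeding and growth inhibition scored against untreated discs 3 days after infestation. Control recorded when any one category exceeds the untreated sample.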

The subject of the next data set is Euschistus heros. Nature of the data set: Euschistus heros (Neotropical Brown Stink Bug). The class given is in vivo. Conditions: 120 h, application rate of 200 ppm, sprayed soybean leaves, N2 nymphs, 5 days after infestation, read-out: effect in at least one of the two categories (mortality or growth inhibition). The protocol: Soybean leaves on agar in 24-well microtiter plates were sprayed with aqueous test solutions prepared from 10,000 ppm DMSO stock solutions. After drying the leaves were infested with N2 nymphs. The samples were assessed for mortality and growth inhibition in comparison to untreated samples 5 days after infestation.

The subject of another data set is Aedes aegypti. The data set can be described thus: Aedes Aegypti (Yellow Fever Mosquito). It counts as in vivo. To be noted: 200 ppm in ethanol, dry deposit in 12 well plates, adult females, after 48 h and/or 24 h. Here is the method: Test solutions, at an application rate of 200 ppm in ethanol, were applied to 12 well tissue culture plates. Once the deposits were dry, five, two to five day old adult female Aedes aegypti were added to each well, and sustained with a 10% sucrose solution in a cotton wool plug. Assessment of knockdown was made one hour after introduction, and mortality was assessed at 24 and 48 hours after introduction.

The subject of a further data set is Tetranychus urticae. The data set can be described thus: Tetranychus urticae (Two-Spotted Spider Mite): Feeding/Contact Activity. To be noted: foliar, 192 h, application rate of 200 ppm, sprayed bean leaf discs, mixed population (mobile stages), 8 days after infestation. It counts as in vivo. The protocol:
Bean leaf discs on agar in 24-well microtiter plates were sprayed with aqueous test solutions prepared from 10,000 ppm DMSO stock solutions. After drying the leaf discs were infested with a mite population of mixed ages. The samples were assessed for mortality on mixed population (mobile stages) 8 days after infestation.

In data set [2] the test system is Myzus persicae. The data set can be described thus: Myzus persicae (Green Peach Aphid): Feeding/Contact Activity. Conditions: foliar, 144 h, application rate of 200 ppm, sprayed sunflower leaf discs, aphid population of mixed ages, 6 days after infestation. It counts as in vivo. Here is the method:
Sunflower leaf discs were placed onto agar in a 24-well microtiter plate and sprayed with aqueous test solutions prepared from 10,000 ppm DMSO stock solutions. After drying, the leaf discs were infested with an aphid population of mixed ages. The samples were assessed for mortality 6 days after infestation.

Another data set relates to Diabrotica balteata. Nature of the data set: Diabrotica balteata (Corn Root Worm). Conditions: 96 h, application rate of 200 ppm, sprayed maize sprouts, L2 larvae, 4 days after infestation, read-out: effect in at least one of the two categories (mortality or growth inhibition). It counts as in vivo. The protocol:
Maize sprouts placed onto an agar layer in 24-well microtiter plates were treated with aqueous test solutions prepared from 10,000 ppm DMSO stock solutions by spraying. After drying, the plates were infested with L2 larvae (6 to 10 per well). The samples were assessed for mortality and growth inhibition in comparison to untreated samples 4 days after infestation.

In a further data set the test system is Plutella xylostella. The data set can be described thus: Plutella xylostella (Diamond Back Moth). It counts as in vivo. To be noted: 120 h, application rate of 200 ppm, artificial diet, L2 larvae, 5 days after infestation, read-out: effect in at least one of the two categories (mortality or growth inhibition). The protocol: 24-well microtiter plates with artificial diet were treated with aqueous test solutions prepared from 10,000 ppm DMSO stock solutions by pipetting. After drying, the plates were infested with L2 larvae (10 to 15 per well). The samples were assessed for mortality and growth inhibition in comparison to untreated samples 5 days after infestation.

The test system of data set [3] is Frankliniella occidentalis. Nature of the data set: Frankliniella occidentalis (Western Flower Thrips): Feeding/Contact Activity. To be noted: foliar, 168 h, application rate of 200 ppm, sprayed sunflower leaf discs, population of mixed ages, 7 days after infestation. The class given is in vivo. The protocol:
Sunflower leaf discs were placed on agar in 24-well microtiter plates and sprayed with aqueous test solutions prepared from 10,000 DMSO stock solutions. After drying the leaf discs were infested with a Frankliniella population of mixed ages. The samples were assessed for mortality 7 days after infestation.

Data set [4] deals with Spodoptera littoralis. Nature of the data set: Spodoptera littoralis (Egyptian Cotton Leaf Worm), uptake by lettuce roots from agar. The class given is in vivo. Conditions: 144 h, test rate of 12.5 ppm, mixed with agar, absorbed by lettuce roots, Spodoptera eggs, 6 days after infestation, read-out: effect in at least one of the three categories (mortality, anti-feeding, or growth inhibition). Summed up:
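Compound from 10,000 ppm DMSO stock mixed into agar; lettuce seeds grew 7 days, taking compound up via roots into the lid plate. Cut leaves infested with Spodoptera eggs; mortality, anti-feedant effect and growth inhibition scored against untreated samples 6 days after infestation.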

Another data set relates to Bemisia tabaci. The data set can be described thus: Bemisia tabaci (Cotton White Fly): Feeding/Contact Activity. The class given is in vivo. To be noted: foliar, 144 h, application rate of 200 ppm, sprayed cotton leaf discs, adult white flies, 6 days after incubation. The protocol:
Cotton leaf discs were placed on agar in 24-well microtiter plates and sprayed with aqueous test solutions prepared from 10,000 ppm DMSO stock solutions. After drying the leaf discs were infested with adult white flies. The samples were checked for mortality 6 days after incubation.

In data set [5] the test system is Myzus persicae. Nature of the data set: Myzus persicae (Green Peach Aphid). Systemic Activity. The class given is in vivo. To be noted: 144 h, test rate of 24 ppm, roots of infested pea seedlings in test solution, 6 days. Here is the method: Roots of pea seedlings infested with an aphid population of mixed ages were placed directly into aqueous test solutions prepared from 10,000 DMSO stock solutions. The samples were assessed for mortality 6 days after placing seedlings into test solutions.

In a further data set the test system is Thrips tabaci. The data set can be described thus: Thrips tabaci (Onion Thrips) Feeding/Contact Activity. It counts as in vivo. Conditions: foliar, 144 h, application rate of 200 ppm, sprayed sunflower leaf discs, thrips population of mixed ages, 6 days after infestation. Here is the method: Sunflower leaf discs were placed on agar in 24-well microtiter plates and sprayed with aqueous test solutions prepared from 10,000 ppm DMSO stock solutions. After drying the leaf discs were infested with a thrips population of mixed ages. The samples were assessed for mortality 6 days after infestation.

`CCn1c(C(F)(F)F)cc2nc(-c3ncc(NC4CC4)cc3S(=O)(=O)CC)n(C)c2c1=O` [Compound A1]: in the data set on Spodoptera littoralis [1], the percent control (mortality, anti-feeding effect or growth inhibition) at 200 ppm was at least 80%. Besides, the percent effect (mortality or growth inhibition) at 200 ppm with Euschistus heros and with Plutella xylostella was at least 80% throughout. Moreover, the pest or weed control at 200 ppm in the data set with Aedes aegypti is at least 80%. In addition, the mortality at 200 ppm (in the data set with Tetranychus urticae; in the data set on Myzus persicae [2]; in [3]) was at least 80% throughout. Further, the effect mortality or growth inhibition at 200 ppm in the data set on Diabrotica balteata is at least 80%.
Regarding `CCn1c(C(F)(F)F)cc2nc(-c3nc(N(C)C(=O)C4CC4)ccc3S(=O)(=O)CC)n(C)c2c1=O` [Compound A10, N-[6-[5-ethyl-3-methyl-4-oxo-6-(trifluoromethyl)imidazo[4,5-c]pyridin-2-yl]-5-ethylsulfonyl-2-pyridyl]-N-methyl-cyclopropanecarboxamide], the percent control (mortality, anti-feeding effect or growth inhibition) at 200 ppm in the data set on Spodoptera littoralis [1] is at least 80%. Further, the percent effect (mortality, anti-feeding or growth inhibition) at 12.5 ppm in the data set on Spodoptera littoralis [4] was at least 80%. The percent effect (mortality or growth inhibition) at 200 ppm in the data set on Euschistus heros and in the data set on Plutella xylostella was at least 80% each time. Further, the mortality at 200 ppm (with Bemisia tabaci; with Myzus persicae [2]; in [3]) was at least 80% in each case. This molecule also yielded a mortality at 24 ppm with Myzus persicae [5] of at least 80%. Moreover, the effect mortality or growth inhibition at 200 ppm in the data set with Diabrotica balteata is at least 80%.
In the data set on Spodoptera littoralis [1], `CCn1c(C(F)(F)F)cc2nc(-c3ncc(N(C)C4CC4)cc3S(=O)(=O)CC)n(C)c2c1=O` [Compound A11, 2-[5-[cyclopropyl(methyl)amino]-3-ethylsulfonyl-2-pyridyl]-5-ethyl-3-methyl-6-(trifluoromethyl)imidazo[4,5-c]pyridin-4-one] gave a percent control (mortality, anti-feeding effect or growth inhibition) at 200 ppm of at least 80%. Besides, the percent effect (mortality, anti-feeding or growth inhibition) at 12.5 ppm in the data set on Spodoptera littoralis [4] is at least 80%. The percent effect (mortality or growth inhibition) at 200 ppm with Euschistus heros and in the data set on Plutella xylostella was at least 80% in each case. In addition, in the data set on Aedes aegypti, the pest or weed control at 200 ppm is at least 80%. The mortality at 200 ppm (with Myzus persicae [2]; in data set [3]) was at least 80% throughout. The effect mortality or growth inhibition at 200 ppm in the data set with Diabrotica balteata was at least 80%.
For the molecule `CCn1c(C(F)(F)F)cc2nc(-c3ncc(N(C(=O)C4CC4)S(C)(=O)=O)cc3S(=O)(=O)CC)n(C)c2c1=O` [Compound A21, N-[6-[5-ethyl-3-methyl-4-oxo-6-(trifluoromethyl)imidazo[4,5-c]pyridin-2-yl]-5-ethylsulfonyl-3-pyridyl]-N-methylsulfonyl-cyclopropanecarboxamide], the melting point was in the range of 232 to 234 °C.
In turn, `CCS(=O)(=O)c1cc(Cl)c(N)nc1-c1nc2cc(C(F)(F)F)n(C3CC3)c(=O)c2n1C` [Compound A43, 2-(6-amino-5-chloro-3-ethylsulfonyl-2-pyridyl)-5-cyclopropyl-3-methyl-6-(trifluoromethyl)imidazo[4,5-c]pyridin-4-one] registered a percent control (mortality, anti-feeding effect or growth inhibition) at 200 ppm in the data set with Spodoptera littoralis [1] of at least 80%. For the same molecule, in the data set with Spodoptera littoralis [4], the percent effect (mortality, anti-feeding or growth inhibition) at 12.5 ppm was at least 80%. Further, the percent effect (mortality or growth inhibition) at 200 ppm in the data set with Euschistus heros and in the data set on Plutella xylostella was at least 80% in each case. Besides, the mortality at 200 ppm (in the data set on Bemisia tabaci; in the data set on Myzus persicae [2]; in data set [3]) was at least 80% in each case. The mortality at 24 ppm in the data set on Myzus persicae [5] was at least 80%. The effect mortality or growth inhibition at 200 ppm in the data set with Diabrotica balteata is at least 80%.
Consider `CCS(=O)(=O)c1cc(Br)c(N)nc1-c1nc2cc(C(F)(F)F)n(C3CC3)c(=O)c2n1C` [Compound A44, 2-(6-amino-5-bromo-3-ethylsulfonyl-2-pyridyl)-5-cyclopropyl-3-methyl-6-(trifluoromethyl)imidazo[4,5-c]pyridin-4-one], for which the percent control (mortality, anti-feeding effect or growth inhibition) at 200 ppm in the data set with Spodoptera littoralis [1] was at least 80%. Besides, the percent effect (mortality, anti-feeding or growth inhibition) at 12.5 ppm in the data set with Spodoptera littoralis [4] was at least 80%. Moreover, the percent effect (mortality or growth inhibition) at 200 ppm in the data set on Euschistus heros and with Plutella xylostella was at least 80% throughout. In addition, the mortality at 200 ppm in the data set with Bemisia tabaci, in the data set on Myzus persicae [2] and in the data set with Thrips tabaci was at least 80% in each case. Also, the effect mortality or growth inhibition at 200 ppm in the data set on Diabrotica balteata was at least 80%.
As to `CCS(=O)(=O)c1cc(C2CC2)c(N)nc1-c1nc2cc(C(F)(F)F)n(C3CC3)c(=O)c2n1C` [Compound A48, 2-(6-amino-5-cyclopropyl-3-ethylsulfonyl-2-pyridyl)-5-cyclopropyl-3-methyl-6-(trifluoromethyl)imidazo[4,5-c]pyridin-4-one], the percent control (mortality, anti-feeding effect or growth inhibition) at 200 ppm in the data set on Spodoptera littoralis [1] is at least 80%. Besides, the percent effect (mortality or growth inhibition) at 200 ppm in the data set on Euschistus heros and in the data set with Plutella xylostella was at least 80% throughout. The mortality at 200 ppm (with Tetranychus urticae; in the data set on Bemisia tabaci; in the data set on Myzus persicae [2]; in [3]) was at least 80% throughout. This molecule displayed a mortality at 24 ppm in the data set on Myzus persicae [5] of at least 80%. For the same molecule, the effect mortality or growth inhibition at 200 ppm in the data set on Diabrotica balteata is at least 80%.
As to `CCS(=O)(=O)c1cc(C#N)c(N)nc1-c1nc2cc(C(F)(F)F)n(C3CC3)c(=O)c2n1C` [Compound A50, 2-(6-amino-5-cyano-3-ethylsulfonyl-2-pyridyl)-5-cyclopropyl-3-methyl-6-(trifluoromethyl)imidazo[4,5-c]pyridin-4-one], in the data set on Spodoptera littoralis [1], the percent control (mortality, anti-feeding effect or growth inhibition) at 200 ppm was at least 80%. The percent effect (mortality, anti-feeding or growth inhibition) at 12.5 ppm with Spodoptera littoralis [4] is at least 80%. The percent effect (mortality or growth inhibition) at 200 ppm in the data set with Euschistus heros and in the data set on Plutella xylostella was at least 80% each time. Further, the mortality at 200 ppm (in the data set on Myzus persicae [2]; in data set [3]) was at least 80% in each case. In the data set with Myzus persicae [5], this molecule came in with a mortality at 24 ppm of at least 80%. Besides, the effect mortality or growth inhibition at 200 ppm in the data set with Diabrotica balteata was at least 80%.
For `CCS(=O)(=O)c1cc(Br)c(NC)nc1-c1nc2cc(C(F)(F)F)n(C3CC3)c(=O)c2n1C` [Compound A52, 2-[5-bromo-3-ethylsulfonyl-6-(methylamino)-2-pyridyl]-5-cyclopropyl-3-methyl-6-(trifluoromethyl)imidazo[4,5-c]pyridin-4-one], the percent control (mortality, anti-feeding effect or growth inhibition) at 200 ppm with Spodoptera littoralis [1] is at least 80%. In addition, the percent effect (mortality, anti-feeding or growth inhibition) at 12.5 ppm in the data set with Spodoptera littoralis [4] is at least 80%. The percent effect (mortality or growth inhibition) at 200 ppm in the data set with Euschistus heros and in the data set on Plutella xylostella was at least 80% in each case. Further, the mortality at 200 ppm in the data set with Bemisia tabaci, with Myzus persicae [2] and with Thrips tabaci was at least 80% in each case. Besides, the effect mortality or growth inhibition at 200 ppm in the data set with Diabrotica balteata is at least 80%.

By pest or weed control is commonly meant how far the test organism was held down. Higher therefore signals a strong effect. The term mortality denotes the percentage killed. Read a high mortality as a strong lethal effect. Usually melting point stands for the temperature, or range, at which the solid turns liquid.
